Where two headings read alike, the source gives them in different places.
What was measured:
[1] = system: biotin-labeled calf brain tubulin; assay: Competition with 3H-indibulin for tubulin binding (SPA beads); design: species or system bovine; settings: 200-fold molar excess of cold competitor; FIG. 7
Procedure: (§1) Where indicated, a 200-fold molar excess of cold competitor was added. Tubulin heterodimers were then precipitated with streptavidin-coated SPA beads and bound radioactivity was determined. “No tubulin” indicates non-specifically bound radioactivity measured in the absence of biotin-labeled tubulin.

[2] = system: biotin-labeled calf brain tubulin; assay: Competition with 3H-colchicine for tubulin binding (SPA beads); design: species or system bovine; settings: 200-fold molar excess of cold competitor; FIG. 8
Procedure: as §1

A549 NSCLC = assay: Monolayer assay (DNA content by propidium iodide), single agents and indibulin combinations, A549; format: cell-based, human; settings: for CI (e), coefficient of interaction under optimal experimental concentrations: named drug in combination with indibulin, mean of quadruplicate; for IC50: Homo sapiens
Procedure: (§2) The monolayer assay determines the in vitro antitumor activity of test compounds and their capacity to inhibit survival and proliferation of established tumor cell lines. These effects can be determined by establishing the number of viable cells based on measuring the DNA content using propidium iodide. […] Between 5,000 and 10,000 cells were seeded in 96 well plates on Day 0 and the compounds were added 1 day later and incubated for 4 days. The activity was assessed by their IC50 and IC70 values.
(§3) Growth IC50 and IC70 values (Table 2) were determined using XLfit software package, and used to set the concentration ranges and drug ratios for the synergy detection part of the study.
(§4) Chou-Talalay median effect method was used to quantitatively characterize drug-drug interaction [Chou T. C. Theoretical basis, experimental design, and computerized simulation of synergism and antagonism in drug combination studies. Pharmacol Rev. 2006 September; 58(3):621-81]. […] Mixtures of the drugs at multiples of their single agent IC50's were prepared, as well as serial dilutions of the mixture. Additionally, single agent dose response was determined for the same concentration ranges as used for combination study.
(§5) The coefficient of interaction (CI(IC50)) at IC50 and coefficient of interaction under optimal experimental concentrations (CI(e)) were determined using CalcuSyn software package (Table 3, tests were performed in quadruplicate, mean values reported). Commonly, experimental values of CI<0.8 are considered synergistic, 0.8<CI<1.2 additive.

PC3 (prostate) = assay: Monolayer assay (DNA content by propidium iodide), single agents and indibulin combinations, PC3; format: cell-based, human; settings: for IC50: Homo sapiens, read-out: Single Agent IC50; for Combination IC50 / CI (e), coefficient of interaction under optimal experimental concentrations: PC3; for Combination IC50: concentration of the named drug in the combination; for CI (e), coefficient of interaction under optimal experimental concentrations: named drug in combination with indibulin, mean of quadruplicate
Procedure: as §2, §3, §4, §5

[3] = system: MCF-7 ER-positive breast cancer; assay: Monolayer assay (DNA content by propidium iodide), single agents and indibulin combinations, MCF-7; format: cell-based, human; settings: for IC50: Homo sapiens; for CI (e), coefficient of interaction under optimal experimental concentrations: named drug in combination with indibulin, mean of quadruplicate
Procedure: as §2, §3, §4, §5

[4] = system: axonal microtubules of rat pheochromocytoma (PC12) cells; assay: Axonal microtubule immunostaining in NGF-differentiated PC12 cells; format: cell-based; settings: PC12 neurites induced by NGF 5-6 days; 24 h treatment at 2×IC50 concentration
Text: The outgrowth of neurites of PCl2 was induced by NGF for 5-6 days. […] Microtubules within the neurites, were visualized by immunostaining with an antibody recognizing acetylated (axonal) tubulin, leaving the cell bodies unstained.

[5] = system: adult bovine brain tubulin; assay: Tubulin polymerization, adult bovine brain tubulin; format: biochemical; settings: calf and adult bovine brain tubulin compared
Text: Tubulin from neuronal tissue is post-translationally modified and the degree of modification increases during neuronal development. Calf brain neuronal tubulin and tubulin from other tissues differ in their post-translational modifications from that of adult bovine brain. […] Tubulin polymerization is given as % over DMSO control.

SKOV3 (ovarian) = assay: Monolayer assay (DNA content by propidium iodide), single agents and indibulin combinations, SKOV3; format: cell-based, human; settings: for Single Agent IC50: SKOV3, single agent (combination study); for Combination IC50 / CI (e), coefficient of interaction under optimal experimental concentrations: SKOV3; for CI (e), coefficient of interaction under optimal experimental concentrations: named drug in combination with indibulin, mean of quadruplicate; for IC50: Homo sapiens
Procedure: as §2, §3, §4, §5

[6] = A549, single agent (combination study)
[7] = A549, 96 h, A549, single agent, 4 days incubation, read-out: Growth IC50
[8] = MCF7, MCF7, single agent (combination study), read-out: Single Agent IC50
[9] = MCF7, single agent (combination study)
[10] = MCF7, indibulin + 5-FU (5FU:indibulin 10.9:1), concentration of the named drug in the combination
[11] = MCF7, 96 h, MCF7, single agent, 4 days incubation, read-out: Growth IC50
[12] = MCF7, indibulin + vinorelbine (vinorelbine:indibulin 0.016:1), concentration of the named drug in the combination
[13] = MCF7, indibulin + paclitaxel (paclitaxel:indibulin 0.27:1), concentration of the named drug in the combination
[14] = A549, indibulin + carboplatin (carboplatin:indibulin 303:1), concentration of the named drug in the combination

## COc1cc([C@@H]2c3cc4c(cc3[C@H](O)[C@H]3COC(=O)[C@H]23)OCO4)cc(OC)c1OC [podophyllotoxin]
[1]
  Competition with 3H-indibulin for tubulin binding: compete
[2]
  Inhibition of 3H-colchicine binding (in words): completely inhibit binding

## C#Cc1cccc(Nc2ncnc3cc(OCCOC)c(OCCOC)cc23)c1 [Erlotinib]
A549 NSCLC; [6]
  Single Agent IC40: 20315 ng/mL
A549 NSCLC; A549, indibulin + erlotinib (erlotinib:indibulin 208:1), concentration of the named drug in the combination
  Combination IC40: 4424 ng/mL
A549 NSCLC; A549
  CI (e), coefficient of interaction under optimal experimental concentrations: 0.32
A549 NSCLC; [7]
  IC50: 7860 ng/mL
A549 NSCLC; A549, A549, single agent (combination study), read-out: Single Agent IC50
  IC50: 38500 ng/mL
A549 NSCLC; A549, A549, indibulin + erlotinib (erlotinib:indibulin 208:1), concentration of the named drug in the combination, read-out: Combination IC50
  IC50: 6200 ng/mL

## C[C@]12CC[C@@H]3c4ccc(OC(=O)N(CCCl)CCCl)cc4CC[C@H]3[C@@H]1CC[C@@H]2O [Estramustine]
PC3 (prostate)
  IC50: 29700 ng/mL
  CI (e), coefficient of interaction under optimal experimental concentrations: 0.76
PC3 (prostate); indibulin + estramustine
  Combination IC50: 26,466 ng/mL

## O=c1[nH]cc(F)c(=O)[nH]1 [5-FU, 5-Fluorouracil]
[3]; [8]
  IC50: 92 ng/mL
[3]; [9]
  Single Agent IC60: 84 ng/mL
[3]; [10]
  Combination IC50: 57 ng/mL
  Combination IC60: 30 ng/mL
[3]; MCF7
  CI (e), coefficient of interaction under optimal experimental concentrations: 0.46

## CCC1=C[C@@H]2CN(C1)Cc1c([nH]c3ccccc13)[C@@](C(=O)OC)(c1cc3c(cc1OC)N(C)[C@H]1[C@@](O)(C(=O)OC)[C@H](OC(C)=O)[C@]4(CC)C=CCN5CC[C@]31[C@@H]54)C2 [Vinorelbine]
[3]; [11]
  IC50: 0.18 ng/mL
[3]; [8]
  IC50: 0.19 ng/mL
[3]; [9]
  Single Agent IC60: 0.26 ng/mL
[3]; [12]
  Combination IC50: 0.08 ng/mL
  Combination IC60: 0.10 ng/mL

## COc1cc2c(c(OC)c1OC)-c1ccc(OC)c(=O)cc1[C@@H](NC(C)=O)CC2 [colchicine]
[4]
  Effect on axonal microtubules (acetylated tubulin immunostaining): microtubules were partially disrupted

## CC[C@]1(O)C[C@H]2CN(CCc3c([nH]c4ccccc34)[C@@](C(=O)OC)(c3cc4c(cc3OC)N(C=O)[C@H]3[C@@](O)(C(=O)OC)[C@H](OC(C)=O)[C@]5(CC)C=CCN6CC[C@]43[C@@H]65)C2)C1 [vincristine]
[5]
  Inhibition of calf versus bovine brain tubulin polymerization (in words): inhibited both, calf and bovine brain tubulin polymerization to a similar extent

## CC/C(=C(\c1ccccc1)c1ccc(OCCN(C)C)cc1)c1ccccc1 [Tamoxifen]
[3]; [9]
  Single Agent IC60: 3166 ng/mL
[3]; MCF7, indibulin + tamoxifen (tamoxifen:indibulin 100:1), concentration of the named drug in the combination
  Combination IC60: 641 ng/mL
[3]; MCF7
  CI (e), coefficient of interaction under optimal experimental concentrations: 0.67

## COC(=O)Nc1nc2ccc(C(=O)c3cccs3)cc2[nH]1 [nocodazole]
[1]
  Competition with 3H-indibulin for tubulin binding: compete
[2]
  Inhibition of 3H-colchicine binding (in words): completely inhibit binding

## CC[C@]1(O)C[C@@H]2CN(CCc3c([nH]c4ccccc34)[C@@](C(=O)OC)(c3cc4c(cc3OC)N(C)[C@H]3[C@@](O)(C(=O)OC)[C@H](OC(C)=O)[C@]5(CC)C=CCN6CC[C@]43[C@@H]65)C2)C1 [Vinblastine]
[3]; MCF7
  CI (e), coefficient of interaction under optimal experimental concentrations: 0.50
[1]
  Competition with 3H-indibulin for tubulin binding: do not compete
[2]
  Inhibition of 3H-colchicine binding (in words): no effect

## N.N.[Cl][Pt][Cl] [Cisplatin]
SKOV3 (ovarian)
  Single Agent IC50: 773 ng/mL
  CI (e), coefficient of interaction under optimal experimental concentrations: 0.77
SKOV3 (ovarian); indibulin + cisplatin, concentration of the named drug in the combination
  Combination IC50: 780 ng/mL

## COc1cc([C@@H]2c3cc4c(cc3[C@@H](O[C@@H]3O[C@@H]5CO[C@@H](C)O[C@H]5[C@H](O)[C@H]3O)[C@H]3COC(=O)[C@H]23)OCO4)cc(OC)c1O [Etoposide]
A549 NSCLC; [6]
  Single Agent IC60: 177 ng/mL
A549 NSCLC; A549, indibulin + etoposide, concentration of the named drug in the combination
  Combination IC60: 94 ng/mL
A549 NSCLC; A549
  CI (e), coefficient of interaction under optimal experimental concentrations: 1.05
A549 NSCLC; [7]
  IC50: 52 ng/mL

## CC(=O)O[C@H]1C(=O)[C@@]2(C)[C@H]([C@H](OC(=O)c3ccccc3)[C@]3(O)C[C@H](OC(=O)[C@H](O)[C@@H](NC(=O)c4ccccc4)c4ccccc4)C(C)=C1C3(C)C)[C@]1(OC(C)=O)CO[C@@H]1C[C@@H]2O [Paclitaxel]
[3]; [11]
  IC50: 0.3 ng/mL
[3]; [8]
  IC50: 1.27 ng/mL
[3]; [9]
  Single Agent IC84: 5.3 ng/mL
[3]; [13]
  Combination IC50: 1.08 ng/mL
  Combination IC84: 2.7 ng/mL
[3]; MCF7
  CI (e), coefficient of interaction under optimal experimental concentrations: 0.42
[1]
  Competition with 3H-indibulin for tubulin binding: do not compete
[2]
  Inhibition of 3H-colchicine binding (in words): no effect

## N.N.O=C([O-])C1(C(=O)[O-])CCC1.[Pt+2] [Carboplatin]
A549 NSCLC; [6]
  Single Agent IC50: 5,827 ng/mL
  Single Agent IC70: 15365 ng/mL
A549 NSCLC; [14]
  Combination IC50: 3481 ng/mL
  Combination IC70: 8044 ng/mL
A549 NSCLC; A549
  CI (e), coefficient of interaction under optimal experimental concentrations: 0.72
SKOV3 (ovarian)
  Single Agent IC50: 12,026 ng/mL
  CI (e), coefficient of interaction under optimal experimental concentrations: 0.73
SKOV3 (ovarian); indibulin + carboplatin, concentration of the named drug in the combination
  Combination IC50: 12,881 ng/mL

## Nc1ccn([C@@H]2O[C@H](CO)[C@@H](O)C2(F)F)c(=O)n1 [Gemcitabine]
A549 NSCLC; A549
  CI (e), coefficient of interaction under optimal experimental concentrations: 0.93
A549 NSCLC; [7]
  IC50: 1.7 ng/mL
SKOV3 (ovarian); SK-OV-3, SKOV3, single agent (combination study), read-out: Single Agent IC50
  IC50: 11 ng/mL
SKOV3 (ovarian); SK-OV-3, SKOV3, indibulin + gemcitabine, concentration of the named drug in the combination, read-out: Combination IC50
  IC50: 12 ng/mL
SKOV3 (ovarian)
  CI (e), coefficient of interaction under optimal experimental concentrations: 0.65

## COc1cccc2c1C(=O)c1c(O)c3c(c(O)c1C2=O)C[C@@](O)(C(=O)CO)C[C@@H]3O[C@H]1C[C@H](N)[C@H](O)[C@H](C)O1 [Doxorubicin]
[3]; [8]
  IC50: 7 ng/mL
[3]; MCF7, indibulin + doxorubicin, concentration of the named drug in the combination
  Combination IC50: 3 ng/mL
[3]; MCF7
  CI (e), coefficient of interaction under optimal experimental concentrations: 0.64

## C[C@]12C=CC(=O)C=C1CC[C@@H]1[C@@H]2[C@@H](O)C[C@@]2(C)[C@H]1CC[C@]2(O)C(=O)CO [Prednisolone]
PC3 (prostate); PC3, single agent (combination study)
  IC50: 137000 ng/mL
PC3 (prostate); indibulin + prednisolone
  Combination IC50: 145,659 ng/mL
PC3 (prostate)
  CI (e), coefficient of interaction under optimal experimental concentrations: 0.91

— patent US20080241274A1 (ZIOPHARM Oncology, Inc., priority 2006, published 2008)
